Laboratory results from paper PMC2963311 (Nature neuroscience, 2008).
Where no end group is shown, it is not given here.

Tested on: EGL-6
Assay: GIRK current activation in EGL-6-expressing oocytes
Assay type: cell-based, C. elegans
Conditions: single synthetic peptide; X. laevis oocytes coexpressing EGL-6 and GIRKs; whole-cell currents, two-electrode voltage clamp, −80 mV, high-K+ medium (96 mM KCl); Fig. 4d

Substance | agonist activity when applied individually
KSAFVRF-NH2 | could function as agonists when applied individually
KSQYIRF-NH2 | could function as agonists when applied individually
QPKARSGYIRF-NH2 | could function as agonists when applied individually
